Source: ChEMBL document CHEMBL1201862, “PubChem BioAssay data set” (2004)
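How tested: cells in 96-well plates exposed to compound for 48 hours at five concentrations. GI50 marks 50% less growth.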 Activity calls are given as the source filed them. Rule as the data show it: active = GI50 up to about 1.1 µM and inactive = higher.

Legend:
Experiment in all cases: NCI anticancer screen, dose series, 48 h
HOP-92 = system: HOP-92
UO-31 = system: UO-31
NCI-H460 = system: NCI-H460
HL-60 = system: HL-60
HCT-15 = system: HCT-15
IGROV-1 = system: IGROV-1
SF-295 = system: SF-295
KM12 = system: KM12
RXF 393 = system: RXF 393
EKVX = system: EKVX
SW-620 = system: SW-620
OVCAR-4 = system: OVCAR-4
UACC-62 = system: UACC-62
HCC 2998 = system: HCC 2998
SK-MEL-28 = system: SK-MEL-28
SNB-75 = system: SNB-75
SR = system: SR
SNB-19 = system: SNB-19
LOX IMVI = system: LOX IMVI

| SMILES | GI50 (HOP-92) | GI50 (UO-31) | GI50 (NCI-H460) | GI50 (HL-60) | GI50 (HCT-15) [µM] | GI50 (IGROV-1) | GI50 (SF-295) | GI50 (KM12) | GI50 (RXF 393) | GI50 (EKVX) | GI50 (SW-620) | GI50 (OVCAR-4) | GI50 (UACC-62) | GI50 (HCC 2998) | GI50 (SK-MEL-28) | GI50 (SNB-75) | GI50 (SR) | GI50 (SNB-19) | GI50 (LOX IMVI) |
| --- | --- | --- | --- | --- | --- | --- | --- | --- | --- | --- | --- | --- | --- | --- | --- | --- | --- | --- | --- |
| Oc1c(Cl)c2nccnc2c2ccccc12 | > 100 µM (inactive) | > 100 µM (inactive) | > 100 µM (inactive) | > 100 µM (inactive) | > 100 | > 100 µM (inactive) | > 100 µM (inactive) | > 100 µM (inactive) | > 100 µM (inactive) | > 100 µM (inactive) | > 100 µM (inactive) | > 100 µM (inactive) | > 100 µM (inactive) | > 100 µM (inactive) | > 100 µM (inactive) | > 100 µM (inactive) | – | – | – |
| [O-][Cl+3]([O-])([O-])O.c1ccc(/N=c2\snc(-c3ccccc3)s2)cc1 | – | > 100 µM (inactive) | > 100 µM (inactive) | > 100 µM (inactive) | > 100 | > 100 µM (inactive) | – | > 100 µM (inactive) | > 100 µM (inactive) | – | > 100 µM (inactive) | > 100 µM (inactive) | > 100 µM (inactive) | > 100 µM (inactive) | > 100 µM (inactive) | > 100 µM (inactive) | > 100 µM (inactive) | > 100 µM (inactive) | – |
| Cn1cc(C(=O)C[n+]2ccccc2)c2ccccc21 | – | > 100 µM (inactive) | > 100 µM (inactive) | > 100 µM (inactive) | > 100 | 72.1 µM (inactive) | 38.4 µM (inactive) | 50.2 µM (inactive) | – | 11.9 µM (inactive) | > 100 µM (inactive) | 46.1 µM (inactive) | > 100 µM (inactive) | > 100 µM (inactive) | – | 69.2 µM (inactive) | > 100 µM (inactive) | 52.8 µM (inactive) | > 100 µM (inactive) |
| COC(=O)c1c(O)ccc(O)c1C(C(C)=O)C(C)=O | > 100 µM (inactive) | > 100 µM (inactive) | > 100 µM (inactive) | > 100 µM (inactive) | > 100 | > 100 µM (inactive) | > 100 µM (inactive) | > 100 µM (inactive) | > 100 µM (inactive) | > 100 µM (inactive) | > 100 µM (inactive) | > 100 µM (inactive) | 96.6 µM (inactive) | > 100 µM (inactive) | > 100 µM (inactive) | > 100 µM (inactive) | – | > 100 µM (inactive) | > 100 µM (inactive) |
| O=C1NC(=O)c2c1n(Cc1ccccc1)c(=O)n2Cc1ccccc1 | 25.8 µM (inactive) | > 100 µM (inactive) | 86.7 µM (inactive) | 87.7 µM (inactive) | 77.8 | > 100 µM (inactive) | > 100 µM (inactive) | > 100 µM (inactive) | > 100 µM (inactive) | > 100 µM (inactive) | > 100 µM (inactive) | > 100 µM (inactive) | 84.3 µM (inactive) | > 100 µM (inactive) | > 100 µM (inactive) | > 100 µM (inactive) | – | > 100 µM (inactive) | > 100 µM (inactive) |
| COc1ccc2nc3cc(Cl)ccc3c(SCC(=O)Nc3ccccc3-c3ccccc3NC(=O)CSc3c4ccc(Cl)cc4nc4ccc(OC)cc34)c2c1 | > 100 µM (inactive) | > 100 µM (inactive) | > 100 µM (inactive) | – | > 100 | > 100 µM (inactive) | > 100 µM (inactive) | > 100 µM (inactive) | > 100 µM (inactive) | > 100 µM (inactive) | > 100 µM (inactive) | > 100 µM (inactive) | > 100 µM (inactive) | > 100 µM (inactive) | > 100 µM (inactive) | > 100 µM (inactive) | – | > 100 µM (inactive) | > 100 µM (inactive) |
| O=C(Cc1ccc(O)c(O)c1)NCc1c[nH]c2ccccc12 | > 100 µM (inactive) | 42.3 µM (inactive) | 40.6 µM (inactive) | 27 µM (inactive) | 61.1 | – | 93.3 µM (inactive) | 71.4 µM (inactive) | 29 µM (inactive) | 43.9 µM (inactive) | 92 µM (inactive) | 37 µM (inactive) | – | 62.2 µM (inactive) | 83.6 µM (inactive) | > 100 µM (inactive) | – | 94 µM (inactive) | – |
